Earlier results, collected in publication PMC6721965 (Biochimica et biophysica acta. Biomembranes, 2019).

System: bacteria
Conditions: classification of parent peptides used for hybrid design; ref [4]-[8]

Sequence | Primary cellular localization pattern
ARDNKKTRIWPRHLQLAVRN [DesHDAP1] | membrane translocation
KGRGKQGGKVRWKAKTRSS [parasin] | membrane localization/permeabilization
TRSSRAGLQWPVGRVHRLLRK [buforin II (BF2), buforin II] | membrane translocation
GIGKWLHSAKKFGKAFVGEIMNS [magainin 2] | membrane localization/permeabilization
